Patent publication US20120129939A1, “POLYAMINE INHIBITORS FOR THE TREATMENT AND PREVENTION OF PARKINSON'S DISEASE” (priority 2009, published 2012)
Entries after “also recorded” stand apart in the source; their conditions may differ.

Tests used:
α-synuclein = α-synuclein (Homo sapiens, UniProt P37840); settings: in vitro system, exogenously added (Antony 2003); cited from earlier work
[1] = system: yeast expressing α-synuclein (wildtype and A53T); settings: YPGal medium, spermine 0, 0.2, 0.4 mM; Syn-WT and Syn-A53T versus empty vector strain
[2] = system: transgenic mice (Line 61) expressing wildtype human α-synuclein; assay: α-Synuclein transgenic mice, intraventricular infusion, immunohistochemical analysis of α-synuclein accumulation and neurodegeneration; assay type: in vivo
Excerpt: α-Synuclein transgenic mice and infusion: For this study, heterozygous transgenic (tg) mice (Line 61) expressing wildtype human α-synuclein (hα-syn) under the regulatory control of the mThy1 promoter were used (Rockenstein, E. et al. 2002). These animals were selected because they display abnormal accumulation of detergent-insoluble hα-syn and develop hα-syn-immunoreactive inclusion like structures in the basal ganglia, cortex, and limbic system (Rockentein, E. et al. 2002). Furthermore, these animals also display neurodegenerative and motor deficits that mimic certain aspects of PD and Dementia with Lewy bodies (Fleming, S. et al. 2004). Infusions were performed as previously described (Veinbergs, I. et al. 2001). In order to evaluate the effects of the polyamine pathway, hα-syn tg mice (10-11 months old) received intraventricular infusions with a cannula implanted into the skull and connected to osmotic minipumps of either vehicle, Beneril, or DENSPM. A total of 15 hu-syn tg mice (n=5 per group) were used for these experiments. Mice were treated for six weeks; the compounds were dissolved in 0.9% NaCl at a concentration of 62 μM for DENSPM and 30 μM for Berenil at a pH of 7.2. Then, 200 μL of these solutions were filled into the osmotic minipump (Alzet) ensuring constant delivery ([…]). The minipump was implanted subcutaneously on the back under light anesthesia. An additional group of control non tg (n=5) mice were implanted with minipumps filled with vehicle only. All procedures were completed under the specifications set forth by the Institutional Animal Care and Use Committee.
Brains were removed and divided sagittally. One hemibrain was postfixed in phosphate-buffered 4% paraformaldehyde, pH 7.4, at 4° C. for 48 h and sectioned at 40 μm with a Vibratome 2000 (Leica) and placed in cryosolution, whereas the other hemibrain was snap frozen and stored at −70° C. for further analysis. Sections were first washed 3×5 minutes each in PBS. They were then pretreated with 1% Triton-X, 3% hydrogen peroxide in PBS for 15 minutes, washed again 3×5 min in PBS and blocked in 10% serum matching the animal the secondary antibody was raised in for 1 hour and then washed in PBS. Sections were then placed in primary antibody: mouse anti-TH, rabbit anti-(h) α-syn, mouse anti-MAP2 (Chemicon, (1:500)) overnight in 4° C. Sections were washed 3×5 min in PBS and then placed in biotynilated secondary antibody (1:100) (Vector Laboratories) for 2 hours. After washing again 3 times in PBS, sections were placed in 20% […] (DAB) (Vector Laboratories) for 20 seconds. The reaction with DAB was halted by immersing the sections in double distilled water. Sections were then mounted, dried and coverslipped with Entillin (Fisher Scientific). Sections for fluorescent immunohistochemistry were treated with mouse monoclonal anti-microtuble-associated protein 2 (MAP2, 1:50, Roche Molecular Biochemicals) primary antibody. This antibody was then detected with the fluorescein isothiocyanate (FITC)-conjugated anti-mouse secondary antibody (Vector Laboratories). Coverslips were air-dried overnight, mounted on slides with anti-fading media (Vectashield, Vector Laboratories), and imaged with the LSCM (MRC 1024, Bio-Rad). The immunolabeled blind-coded sections were imaged by LSCM (MRC1024, Bio-Rad) and analyzed with the Image 1.43 program (NIH), as previously described (Fleming, S. et al. 2004).

SAT1 = SAT1 (Homo sapiens, UniProt P21673); settings: literature; cited from earlier work
[3] = infusion via osmotic minipumps six weeks, compared to syntgPBS

Chain of SAT1 (P21673 whole entry, the tested form may be a part): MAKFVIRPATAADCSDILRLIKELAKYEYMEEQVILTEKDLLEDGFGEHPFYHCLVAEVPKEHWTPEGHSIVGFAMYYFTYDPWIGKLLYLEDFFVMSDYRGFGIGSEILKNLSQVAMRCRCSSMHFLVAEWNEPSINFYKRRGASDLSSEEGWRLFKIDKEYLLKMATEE

| Structure (SMILES) | aggregation of α-synuclein (α-synuclein) | toxicity of exogenous spermine (growth curves, OD600) [1] | overall α-synuclein pathology / PD phenotype ([2]; infusion via osmotic minipumps six weeks) | neuronal accumulation of α-synuclein in the basal ganglia (mean α-synuclein cell pixel intensity, caudo-putamen) ([2]; infusion via osmotic minipumps six weeks, DENSPM 62 μM, Berenil 30 μM, compared to transgenic mice treated with PBS) | dendritic complexity in the basal ganglia as detected by MAP2 (% of neuropil covered by MAP2 immunoreactive dendrites) [2, 3] | tyrosine hydroxylase (TH) fibers (TH corrected optical density in the caudo-putamen) [2, 3] | mean α-synuclein cell pixel intensity in the substantia nigra ([2]; infusion via osmotic pumps six weeks, compared to transgenic mice treated with PBS) | SAT1 activity (SAT1) |
| --- | --- | --- | --- | --- | --- | --- | --- | --- |
| NCCCNCCCCNCCCN [Spermine, spermine] | accelerate | more toxic | – | – | – | – | – | – |
| NCCCCNCCCN [spermidine] | accelerate | – | – | – | – | – | – | – |
| CCNCCCNCCCNCCCNCC [DENSPM, N1, N11-diethylnorspermine] | – | – | partially rescued; also recorded: partially improved | decreased | ameliorated; also recorded: rescued | partially rescued; also recorded: increased | trending decrease | increases |
